Experiments:
CYP11B2 = biological target: T1, CYP11B2 (Rattus norvegicus, UniProt P30099); experiment: In vivo assay: plasma aldosterone concentration (PAC) in ACTH-infused conscious rats; settings: 10 mg/kg p.o., ACTH infusion
T1 construct: from tissue; host or cells: whole animal: conscious male Sprague-Dawley rats under ACTH infusion (the adrenal gland as site of the enzyme comes from the background, b5)
T1 sequence (P30099 35-510): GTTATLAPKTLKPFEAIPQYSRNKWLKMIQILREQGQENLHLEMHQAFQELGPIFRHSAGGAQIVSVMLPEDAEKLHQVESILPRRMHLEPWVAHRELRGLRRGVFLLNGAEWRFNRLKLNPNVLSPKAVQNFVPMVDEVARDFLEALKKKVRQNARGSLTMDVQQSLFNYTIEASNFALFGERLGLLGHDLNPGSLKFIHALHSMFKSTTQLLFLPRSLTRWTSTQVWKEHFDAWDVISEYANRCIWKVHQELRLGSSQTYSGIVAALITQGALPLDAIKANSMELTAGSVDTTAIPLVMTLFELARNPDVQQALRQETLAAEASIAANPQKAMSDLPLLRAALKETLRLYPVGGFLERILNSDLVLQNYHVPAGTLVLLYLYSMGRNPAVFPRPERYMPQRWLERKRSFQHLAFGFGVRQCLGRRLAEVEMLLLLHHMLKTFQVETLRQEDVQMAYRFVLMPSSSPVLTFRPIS
Procedure: (§1) The in vivo effects of compounds on plasma aldosterone concentration (PAC) and plasma glucocorticoid (corticosterone) concentration (PCC) were evaluated in conscious rats.
(§2) Male Sprague-Dawley rats (˜400-600 g body weight) were surgically instrumented with a femoral arterial and venous catheter. The catheters were exteriorized from the lower back through a stainless steel spring and swivel system that enabled the rats to move freely at all times. Rats were allowed at least one week to recover from the surgery before initiating the experiments.
(§3) On the morning of the experiment, a pretreatment blood sample was collected on heparin from the arterial catheter. The blood samples were spun in a refrigerated centrifuge to generate plasma. The plasma was stored frozen at −70° C. until the later measurement of PAC and PCC (by radioimmunoassay). Adrenocorticotropic hormone (ACTH(1-24), referred to herein as ACTH) was then administered as an intravenous (i.v.) bolus (100 ng/kg) followed by a continuous i.v. infusion (30 ng/kg/min) for 9 hours. After one hour of infusion, a baseline (time 0) blood sample was withdrawn from the arterial catheter and processed and stored as described above. The rats were then dosed (typically 0.01 to 100 mg/kg) with the test compound p.o. by oral gavage or parenterally via the arterial catheter (i.a.). Compounds were formulated in an appropriate vehicle (e.g., water (p.o.) or saline (i.a.)) at a physiologically compatible volume (typically 1-2 ml/kg). Additional blood samples were withdrawn at 0.083 (i.a. only), 0.25, 0.5, 1, 2, 3, 4, 5, 6, 7, 8, and 24 hours after dosing with compound and processed and stored as above for later determination of PAC, PCC, and plasma compound concentration (by LC/MS/MS). Oral bioavailability and traditional pharmacokinetic (PK) parameters were estimated from the plasma compound concentrations.
(§4) Based on the plasma compound concentration at each dose, the PK/PD (pharmacodynamic) profiles (reduction of PAC and PCC) of each compound were determined.

Rat CYP11B1 = biological target: T2, Rat CYP11B1 (Rattus norvegicus, UniProt P15393); experiment: In vitro rat CYP11B1 assay; assay type: biochemical; settings: V79-4 cell homogenate, 11-deoxycorticosterone to corticosterone, SPA
T2 construct: made in house; host or cells: V79-4 cell line #259 (stably selected with geneticin and hygromycin); sonicated homogenate, 500 x g supernatant
T2 sequence (P15393 25-499): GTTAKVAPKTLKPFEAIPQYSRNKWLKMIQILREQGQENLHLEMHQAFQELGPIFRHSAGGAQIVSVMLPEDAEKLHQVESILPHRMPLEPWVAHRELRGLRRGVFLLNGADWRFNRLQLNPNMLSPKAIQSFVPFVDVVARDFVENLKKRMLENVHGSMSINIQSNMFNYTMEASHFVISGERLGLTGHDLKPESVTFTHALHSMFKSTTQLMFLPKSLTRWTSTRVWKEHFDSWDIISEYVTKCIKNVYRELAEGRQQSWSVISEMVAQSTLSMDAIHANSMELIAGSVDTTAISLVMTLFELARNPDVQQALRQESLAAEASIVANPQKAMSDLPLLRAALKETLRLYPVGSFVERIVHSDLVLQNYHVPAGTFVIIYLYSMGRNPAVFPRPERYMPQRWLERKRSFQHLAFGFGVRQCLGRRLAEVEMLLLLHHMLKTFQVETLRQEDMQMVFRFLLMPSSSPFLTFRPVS
Source text: Complete EDTA-free protease inhibitor tablets were obtained from Roche Applied Science (Indianapolis, Ind.). Dulbecco's modified Eagle medium (DMEM), antibiotic, geneticin, hygromycin, and fetal bovine serum (FBS) were products of Invitrogen (Carlsbad, Calif.). NADPH Regeneration Solution A and Solution B were purchased from BD Biosciences Clontech (Palo Alto, Calif.). Anti-sheep PVT SPA beads and [1,2,6,7-^3H(N)]corticosterone were acquired from Amersham (Piscataway, N.J.) and PerkinElmer (Boston, Mass.), respectively.
For enzyme preparation, #259 cells were seeded in 150 mm dishes in double-selection medium. Following 2 days of growth, cells were washed once with PBS, scraped and collected in PBS, and centrifuged at 1,300 rpm for 6 min. […] The sonication procedure was repeated 3 more times, with a 5 min rest on ice between sonications. The sonicated material was then spun at 500×g for 4 min to remove unbroken cells. The supernatant was brought to a final glycerol concentration of 5%, flash-frozen in liquid nitrogen, and stored at −80° C.
The CYP11B1 assays were performed in 96-well U-bottom non-tissue-culture-treated plates. […] Plates were then centrifuged at 2,400 rpm for 6 min, and 50 μl of supernatant was removed for measurement of corticosterone content by scintillation proximity assay (SPA).
(§5) Measurement of corticosterone was performed using a 96-well plate format. […] Anti-sheep PVT SPA beads (50 μl) were then added to each well and incubated overnight at room temperature prior to counting in a Microbeta plate counter. The amount of corticosterone in each sample was calculated by comparing with a standard curve generated using known quantities of the hormone.
Full concentration-response curves of an inhibitor were performed at least 3 times. The IC50 values were derived using a non-linear least squares curve-fitting program from IDBS XLfit.

CYP11B1 = biological target: T3, CYP11B1 (Rattus norvegicus, UniProt P15393); experiment: In vivo CYP11B1 assay: plasma corticosterone concentration (PCC) in ACTH-infused conscious rats; settings: 10 mg/kg p.o., ACTH infusion
T3 construct: from tissue; host or cells: whole animal: conscious male Sprague-Dawley rats under ACTH infusion (the adrenal gland as site of the enzyme comes from the background, b5)
T3 sequence (P15393 25-499): T2 sequence (P15393 25-499)
Procedure: as §1, §2, §3, §4

Rat CYP11B2 = biological target: T4, Rat CYP11B2 (Rattus norvegicus, UniProt P30099); experiment: In vitro rat CYP11B2 assay; assay type: biochemical; settings: V79-4 cell homogenate, 11-deoxycorticosterone to aldosterone, SPA
T4 construct: made in house; host or cells: V79-4 cell line #305 (stably selected with geneticin and hygromycin); sonicated homogenate, 500 x g supernatant
T4 sequence (P30099 35-510): T1 sequence (P30099 35-510)
Procedure: Following 2 days of growth, cells are washed once with PBS, scraped and collected in PBS, and centrifuged at 1,300 rpm for 6 min. […] The sonication procedure is repeated 3 more times, with a 5 min incubation on ice between sonications. The sonicated material is then spun at 500×g for 4 min to remove unbroken cells. The supernatant is brought to a final glycerol concentration of 5%, flash-frozen in liquid nitrogen, and stored at −80° C.
The CYP11B2 assay is performed in 96-well U-bottom non-tissue-culture-treated plates. […] Plates are then centrifuged at 2,400 rpm for 6 min, and 100 μl of supernatant is removed for measurement of aldosterone content by scintillation proximity assay (SPA).
as §5, with “aldosterone is” for “corticosterone was”, “Anti-mouse” for “Anti-sheep”, “are” for “were”, “for 4 hr” for “overnight”, “aldosterone” for “corticosterone”, “is” for “was”
Full concentration-response curves of an inhibitor are performed at least 3 times. The IC50 values are derived using a non-linear least squares curve-fitting program from DBS XLfit.

adrenal steroidogenesis = experiment: Pilot single-blind forced-titration study of hormonal effects in patients with primary hyperaldosteronism; assay type: in vivo, human; settings: oral 0.5 mg twice daily 2 weeks then 1.0 mg twice daily 2 weeks
Procedure: A pilot, single-blind, forced-titration study was performed to assess the hormonal effects of a compound of formula (I), 4-[(5R)-6,7-dihydro-5H-pyrrolo[1,2-c]imidazol-5-yl]-3-fluororbenzonitrile dihydrogen phosphate, in patients with diagnosed primary hyperaldosteronism. The clinical study was designed, implemented and reported in accordance with the ICH harmonized tripartite guidelines for good clinical practice with applicable local regulations. Each patient participated in a screening/washout period, a 2-week placebo run-in period, a 4-week treatment period, and a 1-week placebo wash-out. The treatment period consisted of the oral administration of compound of formula (I) twice daily at a dose of 0.5 mg for two weeks followed by a dose increase to 1.0 mg twice daily for another 2 weeks. Blood samples were taken at baseline, day 1 and 2, day 8, day 15, day 22, day 29 and 30 (all at predose i.e., 12 h after the last dose), and at the final study day 36. Each sample was assessed for aldosterone and immunoreactive active renin, 11-deoxycorticosterone, cortisol, 11-deoxycortisol and adrenocorticotropin (ACTH) after subjects were at rest for at least 60 minutes to avoid any postural or stress-induced value changes. Plasma aldosterone was measured using a commercially available radioimmunoassay kit (DPC, France). Plasma Active Renin was measured using the two monoclonal antibodies 3E8 and 125I-4G1 in a commercially available immunoradiometric kit (CisBio, France). Plasma 11-deoxycorticosterone, cortisol and 11-deoxycortisol were measured using a standardized LC-MS/MS method. Plasma ACTH was measured using a commercially available immunoradiometric kit (CisBio, France).
Statistical analysis of the pharmacodynamic biomarker were summarized using descriptive statistics as well as graphical and/or regression methods.

Structure (SMILES)	% Reduction from baseline PAC t = 1 h (CYP11B2; 1 h after dosing) [%]	% Reduction from baseline PAC 8 h (CYP11B2; 8 h after dosing) [%]	IC50 (Rat CYP11B1) [nM]	% Reduction from baseline PCC t = 1 h (CYP11B1; 1 h after dosing) [%]	% Reduction from baseline PCC 8 h (CYP11B1; 8 h after dosing) [%]	IC50 (Rat CYP11B2) [nM]	plasma 11-deoxycorticosterone (P11DOCS) (adrenal steroidogenesis)	plasma 11-deoxycortisol (P11DOC) (adrenal steroidogenesis)	plasma ACTH levels (adrenal steroidogenesis)	plasma active renin level (adrenal steroidogenesis)	plasma aldosterone (adrenal steroidogenesis)	plasma cortisol levels (adrenal steroidogenesis)
N#Cc1ccc([C@H]2CCc3cncn32)c(F)c1 (single isomer, unassigned) [4-(6,7-Dihydro-5H-pyrrolo[1,2-c]imidazol-5-yl)-3-fluorobenzonitrile enantiomer B, 4-(6,7-Dihydro-5H-pyrrolo[1,2-c]imidazol-5-yl)-3-fluorobenzonitrile]	65	72	495	24	30	110	–	–	–	–	–	–
N#Cc1ccc([C@H]2CCc3cncn32)c(F)c1.O=P(O)(O)O [4-[(5R)-6,7-dihydro-5H-pyrrolo[1,2-c]imidazol-5-yl]-3-fluororbenzonitrile dihydrogen phosphate]	–	–	–	–	–	–	unexpectedly high build-up	accumulation	increased ACTH levels	increased active renin level	potent aldosterone suppression	decreasing cortisol levels

From patent US8609862B2, “Use of an adrenal hormone-modifying agent” (Novartis AG, priority 2010, dated 2013)
